Results reported in patent US9161935B2 (TEVA PHARMACEUTICAL INDUSTRIES, LTD., priority 2012, dated 2015).

Test system: Sub-Populations of Crohn's Disease Patients
Assay: CD-LAQ-201 sub-populations of Crohn's disease patients (Example 2)
Assay type: in vivo, human
Protocol: This study was conducted according and with similar requirements as presented in Example 1. […] Patients, who have received anti-TNFαs in the past, tend to reflect a more severe, refractory segment of the Crohn's disease population. […] This sub-cohort analysis describes remission rates at week 8 for patients who were classified as having a predominantly inflammatory disease (based on the Montreal classifications) versus those that have a fibrostenotic or penetrating disease.

[1] = Laq 1.0 mg, Previous use of anti-TNFαs YES, week 8
[2] = Laq 1.5 mg, Fibrostenotic, week 8
[3] = Laq 1.5 mg, Inflammatory, week 8
[4] = Laq 1.5 mg, Oral steroids on Baseline NO
[5] = Laq 1.5 mg, Oral steroids on Baseline NO, week 8
[6] = Laq 1.5 mg, Oral steroids on Baseline YES
[7] = Laq 1.5 mg, Oral steroids on Baseline YES, week 8
[8] = Laq 1.5 mg, Previous Operations NO
[9] = Laq 1.5 mg, Previous Operations NO, week 8
[10] = Laq 1.5 mg, Previous Operations YES
[11] = Laq 1.5 mg, Previous Operations YES, week 8
[12] = Laq 1.5 mg, Previous use of anti-TNFαs NO
[13] = Laq 1.5 mg, Previous use of anti-TNFαs NO, week 8
[14] = Laq 1.5 mg, Previous use of anti-TNFαs YES
[15] = Laq 1.5 mg, Previous use of anti-TNFαs YES, week 8
[16] = Laq 2.0 mg, Fibrostenotic, week 8
[17] = Laq 2.0 mg, Inflammatory, week 8
[18] = Laq 2.0 mg, Oral steroids on Baseline NO
[19] = Laq 2.0 mg, Oral steroids on Baseline NO, week 8
[20] = Laq 2.0 mg, Oral steroids on Baseline YES
[21] = Laq 2.0 mg, Oral steroids on Baseline YES, week 8
[22] = Laq 2.0 mg, Previous Operations NO
[23] = Laq 2.0 mg, Previous Operations NO, week 8
[24] = Laq 2.0 mg, Previous Operations YES
[25] = Laq 2.0 mg, Previous Operations YES, week 8
[26] = Laq 2.0 mg, Previous use of anti-TNFαs NO
[27] = Laq 2.0 mg, Previous use of anti-TNFαs NO, week 8
[28] = Laq 2.0 mg, Previous use of anti-TNFαs YES
[29] = Laq 2.0 mg, Previous use of anti-TNFαs YES, week 8

CCN(C(=O)c1c(O)c2c(Cl)cccc2n(C)c1=O)c1ccccc1 [laquinimod]
Responders100 - N (%): N (Laq 1.0 mg, Previous use of anti-TNFαs YES): 5
Remission - N (%): % [1]: 16.7%
Remission - N (%): N [1]: 3
CDAI Change from Baseline - Mean ± SD (Laq 1.5 mg, Fibrostenotic): −51.8
Responders70 - N (%): % (Laq 1.5 mg, Fibrostenotic): 27.8%
Responders70 - N (%): N (Laq 1.5 mg, Fibrostenotic): 5
Responders100 - N (%): % (Laq 1.5 mg, Fibrostenotic): 27.8%
Responders100 - N (%): N (Laq 1.5 mg, Fibrostenotic): 5
Remission - N (%): % [2]: 11.1%
Remission - N (%): N [2]: 2
CDAI Change from Baseline - Mean ± SD (Laq 1.5 mg, Inflammatory): −43.8
Responders70 - N (%): % (Laq 1.5 mg, Inflammatory): 36.4%
Responders70 - N (%): N (Laq 1.5 mg, Inflammatory): 4
Responders100 - N (%): % (Laq 1.5 mg, Inflammatory): 27.3%
Responders100 - N (%): N (Laq 1.5 mg, Inflammatory): 3
Remission - N (%): % [3]: 18.2%
Remission - N (%): N [3]: 2
CDAI Change from Baseline - Mean ± SD [4]: −46.8
Responders70 - N (%): % [4]: 25.0%
Responders70 - N (%): N [4]: 5
Responders100 - N (%): % [4]: 20.0%
Responders100 - N (%): N [4]: 4
Remission - N (%): % [5]: 10.0%
Remission - N (%): N [5]: 2
CDAI Change from Baseline - Mean ± SD [6]: −52.6
Responders70 - N (%): % [6]: 44.4%
Responders70 - N (%): N [6]: 4
Responders100 - N (%): % [6]: 44.4%
Responders100 - N (%): N [6]: 4
Remission - N (%): % [7]: 22.2%
Remission - N (%): N [7]: 2
CDAI Change from Baseline - Mean ± SD [8]: −68.3
Responders70 - N (%): % [8]: 43.8%
Responders70 - N (%): N [8]: 7
Responders100 - N (%): % [8]: 37.5%
Responders100 - N (%): N [8]: 6
Remission - N (%): % [9]: 25.0%
Remission - N (%): N [9]: 4
CDAI Change from Baseline - Mean ± SD [10]: −26.0
Responders70 - N (%): % [10]: 15.4%
Responders70 - N (%): N [10]: 2
Responders100 - N (%): % [10]: 15.4%
Responders100 - N (%): N [10]: 2
Remission - N (%): % [11]: 0.0%
Remission - N (%): N [11]: 0
CDAI Change from Baseline - Mean ± SD [12]: −95.5
Responders70 - N (%): % [12]: 54.5%
Responders70 - N (%): N [12]: 6
Responders100 - N (%): % [12]: 45.5%
Responders100 - N (%): N [12]: 5
Remission - N (%): % [13]: 27.3%
Remission - N (%): N [13]: 3
CDAI Change from Baseline - Mean ± SD [14]: −18.4
Responders70 - N (%): % [14]: 16.7%
Responders70 - N (%): N [14]: 3
Responders100 - N (%): % [14]: 16.7%
Responders100 - N (%): N [14]: 3
Remission - N (%): % [15]: 5.6%
Remission - N (%): N [15]: 1
CDAI Change from Baseline - Mean ± SD (Laq 2.0 mg, Fibrostenotic): −40.7
Responders70 - N (%): % (Laq 2.0 mg, Fibrostenotic): 22.2%
Responders70 - N (%): N (Laq 2.0 mg, Fibrostenotic): 4
Responders100 - N (%): % (Laq 2.0 mg, Fibrostenotic): 22.2%
Responders100 - N (%): N (Laq 2.0 mg, Fibrostenotic): 4
Remission - N (%): % [16]: 16.7%
Remission - N (%): N [16]: 3
CDAI Change from Baseline - Mean ± SD (Laq 2.0 mg, Inflammatory): −33.1
Responders70 - N (%): % (Laq 2.0 mg, Inflammatory): 36.4%
Responders70 - N (%): N (Laq 2.0 mg, Inflammatory): 4
Responders100 - N (%): % (Laq 2.0 mg, Inflammatory): 36.4%
Responders100 - N (%): N (Laq 2.0 mg, Inflammatory): 4
Remission - N (%): % [17]: 18.2%
Remission - N (%): N [17]: 2
CDAI Change from Baseline - Mean ± SD [18]: −39.7
Responders70 - N (%): % [18]: 29.2%
Responders70 - N (%): N [18]: 7
Responders100 - N (%): % [18]: 29.2%
Responders100 - N (%): N [18]: 7
Remission - N (%): % [19]: 16.7%
Remission - N (%): N [19]: 4
CDAI Change from Baseline - Mean ± SD [20]: −20.3
Responders70 - N (%): % [20]: 20.0%
Responders70 - N (%): N [20]: 1
Responders100 - N (%): % [20]: 20.0%
Responders100 - N (%): N [20]: 1
Remission - N (%): % [21]: 20.0%
Remission - N (%): N [21]: 1
CDAI Change from Baseline - Mean ± SD [22]: −54.6
Responders70 - N (%): % [22]: 37.5%
Responders70 - N (%): N [22]: 6
Responders100 - N (%): % [22]: 37.5%
Responders100 - N (%): N [22]: 6
Remission - N (%): % [23]: 18.8%
Remission - N (%): N [23]: 3
CDAI Change from Baseline - Mean ± SD [24]: −14.2
Responders70 - N (%): % [24]: 15.4%
Responders70 - N (%): N [24]: 2
Responders100 - N (%): % [24]: 15.4%
Responders100 - N (%): N [24]: 2
Remission - N (%): % [25]: 15.4%
Remission - N (%): N [25]: 2
CDAI Change from Baseline - Mean ± SD [26]: −56.4
Responders70 - N (%): % [26]: 55.6%
Responders70 - N (%): N [26]: 10
Responders100 - N (%): % [26]: 33.3%
Responders100 - N (%): N [26]: 6
Remission - N (%): % [27]: 27.8%
Remission - N (%): N [27]: 5
CDAI Change from Baseline - Mean ± SD [28]: −102.2
Responders70 - N (%): % [28]: 50.0%
Responders70 - N (%): N [28]: 6
Responders100 - N (%): % [28]: 50.0%
Responders100 - N (%): N [28]: 6
Remission - N (%): % [29]: 25.0%
Remission - N (%): N [29]: 3
effect of oral steroids together with laquinimod on remission at week 8 (laquinimod 0.5 mg): potential synergistic effect
effect on remission at week 8 with or without previous operations (laquinimod 0.5 mg): had an effect over placebo in both sub-populations
remission in predominantly inflammatory disease vs the complementary cohort (laquinimod 0.5 mg and 1 mg, week 8): may work better
